Among the data in patent US5668159A, “1,3,4-thiadiazoles and 1,3,4-oxadiazoles as IIb/IIIa antagonists” (The DuPont Merck Pharmaceutical Company, priority 1996, dated 1997) are IC50 values, retold here.

Counter-ions that a name gives are not always drawn. Some results are limits rather than exact numbers.

What is called IC50 is the concentration at which inhibition is half-maximal.

In one experiment the test system is platelet aggregation (platelet rich plasma (PRP)). Kind of experiment: Platelet Aggregation Assay (inhibition of agonist-induced platelet aggregation in platelet rich plasma). The experiment is classed as cell-based. The settings on record: with esterase, ester prodrugs preincubated with 100 IU/mL porcine liver esterase 2 hours at 37° C., human PRP, 100 μM ADP, read-out: Platelet Aggregation Assay IC50 (with esterase). As to the method: Platelet Aggregation Assay: Venous blood was obtained from the arm of a healthy human donor who was drug-free and aspirin-free for at least two weeks prior to blood collection. Blood was collected into 10 mL citrated Vacutainer tubes. The blood was centrifuged for 15 minutes at 150× g at room temperature, and platelet-rich plasma (PRP) was removed. The remaining blood was centrifuged for 15 minutes at 1500× g at room temperature, and platelet-poor plasma (PPP) was removed. Samples were assayed on a aggregometer (PAP-4 Platelet Aggregation Profiler), using PPP as the blank (100% transmittance). 200 μL of PRP was added to each micro test tube, and transmittance was set to 0%. 20 μL of various agonists (ADP, collagen, arachidonate, epinephrine, thrombin) were added to each tube, and the aggregation profiles were plotted (% transmittance versus time). The results are expressed as % inhibition of agonist-inducedplatelet aggregation. For the IC50 evaluation, the test compounds were added at various concentrations prior to the activation of the platelets.
Ester prodrugs were preincubated (10^-3 M F.C.) with 100 IU/mL Porcine liver esterase (Sigma Chemical Co., St. Louis, Mo., #E-3128) for 2 hours at 37° C. Aliquots are then diluted in 0.1M Tris, p H 7.4, to the desired concentrations. Aliquots of 20 μl of the esterase pretreated prodrugs are added to 200 μl of human platelet rich plasma. Samples were placed in platelet profiler (aggregometer) for 8 minutes at 37° C., followed by the addition of 100 μM Adenosine Diphosphate, (Sigma Chemical Co., St. Louis, Mo., #A-6521), to induce platelet aggregation. Platelet aggregation was allowed to proceed for 5 minutes. Percent inhibition is calculated using percent aggregation in the presence of the test compound divided by percent aggregation of control, times 100. This value is subtracted from 100, yielding percent inhibition. Calculation of IC50 is performed on a Texas Instruments TI59 with an IC50 program.
Table A below sets forth the antiplatelet activity of representative compounds of the present invention. The indicated compounds were tested for their ability to inhibit platelet aggregation (using platelet rich plasma (PRP)). The IC50 value (the concentration of antagonist which inhibits platelet aggregation by 50% relative to a control lacking the antagonist) is shown. In Table A the IC50 values are expressed as: +++=IC50 of <10 μM; ++=IC50 of […]; +=IC50 of 50-100 μM (μM=micromolar).
Turning to `CCCCOC(=O)N[C@@H](CNC(=O)Cc1nnc(-c2ccc(C(=N)N)cc2)s1)C(=O)OC` [Example 1, Methyl N^3-[2-{2-(4-amidinophenyl)-1,3,4-thiadiazol-5-yl}-acetyl]-N^2-(n-butyloxycarbonyl)-2,3-(S)-diaminopropionate TFA salt], the concentration for half-maximal inhibition (IC50) is below 10 µM.

With `COC(=O)[C@H](CNC(=O)Cc1nnc(-c2ccc(C(=N)N)cc2)s1)NS(=O)(=O)c1cccc(C)c1` [Example 25, Methyl N^3-[2-{2-(4-amidinophenyl)-1,3,4-thiadiazol-5-yl}-acetyl]-N^2-(3-methylphenylsulfonyl)-2,3-(S)-diaminopropionate TFA salt], the IC50 is below 10 µM.

Take `CNC(=N)c1ccc(-c2nnc(CC(=O)NC[C@H](NS(=O)(=O)c3cccc(C)c3)C(=O)OC)s2)cc1` [Example 44, Methyl N^3-[2-{2-(4-N-methylamidinophenyl)-1,3,4-thiadiazol-5-yl}-acetyl]-N^2-(3-methylphenylsulfonyl)-2,3-(S)-diaminopropionate TFA salt]: the IC50 was below 10 µM.

Regarding `CCCCNC(=N)c1ccc(-c2nnc(CC(=O)NC[C@H](NS(=O)(=O)c3cccc(C)c3)C(=O)OC)s2)cc1` [Example 64, Methyl N^3-[2-{2-(4-N-n-butylamidinophenyl)-1,3,4-thiadiazol-5-yl}-acetyl]-N^2-(3-methylphenylsulfonyl)-2,3-(S)-diaminopropionate TFA salt], the IC50 is below 10 µM.

Regarding `COC(=O)[C@H](CNC(=O)Cc1nnc(-c2ccc(C(=N)N)cc2)s1)NS(=O)(=O)c1ccccc1C` [Example 88, Methyl N^3-[2-{2-(4-amidinophenyl)-1,3,4-thiadiazol-5-yl}-acetyl]-N -(2-methylphenylsulfonyl)-2,3-(S)-diaminopropionate TFA salt], the concentration for half-maximal inhibition (IC50) is below 10 µM.

`COC(=O)[C@H](CNC(=O)Cc1nnc(-c2ccc(C(=N)N)cc2)s1)NS(=O)(=O)c1c(C)noc1C` [Example 96, Methyl N^3-[2-{2-(4-amidinophenyl)-1,3,4-thiadiazol-5-yl}-acetyl]-N^2-(3,5-dimethylisoxazol-4-ylsulfonyl)-2,3-(S)-diaminopropionate TFA salt]: the IC50 was below 10 µM.

As to `COC(=O)[C@H](CNC(=O)CCCc1nnc(C2CCNCC2)s1)NS(=O)(=O)c1cccc(C)c1` [Example 133, Methyl N^3-[4-{2-(4-piperidinyl)-1,3,4-thiadiazol-5-yl}-butyryl]-N^2-(3-methylphenylsulfonyl)-2,3-(S)-diaminopropionate TFA salt], the concentration for half-maximal inhibition (IC50) is below 10 µM.

In the case of `COC(=O)[C@H](CNC(=O)Cc1nnc(-c2ccc(NC(=N)N)cc2)s1)NS(=O)(=O)c1cccc(C)c1` [Example 145, Methyl N^3-[2-{2-(4-guanidinophenyl)-1,3,4-thiadiazol-5-yl}-acetyl]-N^2-(3-methylphenylsulfonyl)-2,3-(S)-diaminopropionate TFA salt], the IC50 was below 10 µM.

Take `COC(=O)[C@H](CNC(=O)Cc1nnc(-c2ccc(C(N)=O)cc2)s1)NS(=O)(=O)c1cccc(C)c1` [Example 170, Methyl N^3-[2-{2-(4-amidophenyl)-1,3,4-thiadiazol-5-yl}-acetyl]-N^2-(3-methylphenylsulfonyl)-2,3-(S)-diaminopropionate]: the IC50 lay in the range of 50 to 100 µM.

Turning to `CCCCOC(=O)N[C@@H](CNC(=O)CSc1nnc(-c2ccc(C(=N)N)cc2)s1)C(=O)OC` [Example 192, Methyl N^3-[2-{2-(4-amidinophenyl)-1,3,4-thiadiazol-5-ylthio}acetyl]-N^2-(n-butoxycarbonyl)-2,3-(S)-diaminopropionate HCl salt], the half-maximal inhibitory concentration (IC50) was below 10 µM.

Consider `CCCCOC(=O)N[C@@H](CNC(=O)CSc1nnc(-c2ccc(NC(=N)N)cc2)o1)C(=O)OC` [Example 242, Methyl N^3-[2-{2-(4-guanidinophenyl)-1,3,4-oxadiazol-5-ylthio}acetyl]-N^2-(n-butoxycarbonyl)-2,3-(S)-diaminopropionate TFA salt], for which the concentration for half-maximal inhibition (IC50) lay in the range of 10 to 50 µM.

For `CCCCOC(=O)N[C@@H](CNC(=O)CSc1nnc(-c2ccc(C(=N)N)cc2)o1)C(=O)OC` [Example 258, Methyl N^3-[2-{2-(4-amidinophenyl)-1,3,4-oxadiazol-5-ylthio}-acetyl]-N^2-(n-butyloxycarbonyl)-2,3-(S)-diamino propionate HCl salt], the half-inhibitory concentration (IC50) is below 10 µM.

As for `CCCCOC(=O)N[C@@H](CNC(=O)Cc1nnc(-c2ccc(C(=N)N)cc2)o1)C(=O)OC` [Example 318, Methyl N^3-[2-{2-(4-amidinophenyl)-1,3,4-oxadiazol-5-yl}-acetyl]-N-^2-(n-butyloxycarbonyl)-2,3-(S)-diaminopropionate TFA salt], the IC50 is 50 to 100 µM.

Consider `CCCCOC(=O)N[C@@H](CNC(=O)Cc1nnc(-c2ccc(NC(=N)N)cc2)o1)C(=O)OC` [Example 335, Methyl N^3-[2-{2-(4-guanidinophenyl)-1,3,4-oxadiazol-5-yl}-acetyl]-N2-(n-butyloxycarbonyl)-2,3-(S)-diaminopropionate TFA salt], for which the IC50 is below 10 µM.

Staying with this experiment, now noted: without esterase, human PRP, read-out: Platelet Aggregation Assay IC50 (without esterase).
As for `CCCCOC(=O)N[C@@H](CNC(=O)Cc1nnc(-c2ccc(C(=N)N)cc2)s1)C(=O)O` [Example 2, N^3-[2-{2-(4-amidinophenyl)-1,3,4-thiadiazol-5-yl}-acetyl]-N^2-(n-butyloxycarbonyl)-2,3-(S)-diaminopropionic acid HCl salt], the concentration for half-maximal inhibition (IC50) was below 10 µM.

For `Cc1cccc(S(=O)(=O)N[C@@H](CNC(=O)Cc2nnc(-c3ccc(C(=N)N)cc3)s2)C(=O)O)c1` [Example 26, N^3-[2-{2-(4-amidinophenyl)-1,3,4-thiadiazol-5-yl}-acetyl]-N^2-(3-methylphenylsulfonyl)-2,3-(S)-diaminopropionic acid HCl salt], the IC50 is below 10 µM.

As to `CNC(=N)c1ccc(-c2nnc(CC(=O)NC[C@H](NS(=O)(=O)c3cccc(C)c3)C(=O)O)s2)cc1` [Example 63, N^3-[2-{2-(4-N-methylamidinophenyl)-1,3,4-thiadiazol-5-yl}-acetyl]-N^2-(3-methylphenylsulfonyl)-2,3-(S)-diaminopropionic acid HCl salt], the IC50 was below 10 µM.

Consider `CCCCNC(=N)c1ccc(-c2nnc(CC(=O)NC[C@H](NS(=O)(=O)c3cccc(C)c3)C(=O)O)s2)cc1` [Example 65, N^3-[2-{2-(4-N-n-butylamidinophenyl)-1,3,4-thiadiazol-5-yl}-acetyl]-N^2-(3-methylphenylsulfonyl)-2,3-(S)-diaminopropionic acid HCl salt], for which the concentration for half-maximal inhibition (IC50) was below 10 µM.

Regarding `Cc1ccccc1S(=O)(=O)N[C@@H](CNC(=O)Cc1nnc(-c2ccc(C(=N)N)cc2)s1)C(=O)O` [Example 89, N^3-[2-{2-(4-amidinophenyl)-1,3,4-thiadiazol-5-yl}-acetyl]-N^2-(2-methylphenylsulfonyl)-2,3-(S)-diaminopropionate acid HCl salt], the IC50 is below 10 µM.

Consider `Cc1noc(C)c1S(=O)(=O)N[C@@H](CNC(=O)Cc1nnc(-c2ccc(C(=N)N)cc2)s1)C(=O)O` [Example 97, N^3-[2-{2-(4-amidinophenyl)-1,3,4-thiadiazol-5-yl}-acetyl]-N^2-(3,5-dimethylisoxazol-4-ylsulfonyl)-2,3-(S)-diaminopropionic acid HCl salt], for which the 50% inhibitory concentration (IC50) was below 10 µM.

Turning to `Cc1cccc(S(=O)(=O)N[C@@H](CNC(=O)CCCc2nnc(C3CCNCC3)s2)C(=O)O)c1` [Example 134, N^3-[4-{2-(4-piperidinyl)-1,3,4-thiadiazol-5-yl}-butyryl]-N^2-(3-methylphenylsulfonyl)-2,3-(S)-diaminopropionic acid TFA salt], the concentration for half-maximal inhibition (IC50) is below 10 µM.

In the case of `Cc1cccc(S(=O)(=O)N[C@@H](CNC(=O)Cc2nnc(-c3ccc(NC(=N)N)cc3)s2)C(=O)O)c1` [Example 146, N^3-[2-{2-(4-guanidinophenyl)-1,3,4-thiadiazol-5-yl}-acetyl]-N^2-(3-methylphenylsulfonyl)-2,3-(S)-diaminopropionic acid TFA salt], the IC50 is below 10 µM.

As for `Cc1cccc(S(=O)(=O)N[C@@H](CNC(=O)Cc2nnc(-c3ccc(C(N)=O)cc3)s2)C(=O)O)c1` [Example 171, N^3-[2-{2-(4-Amidophenyl)-1,3,4-thiadiazol-5-yl}-acetyl]-N^2-(3-methylphenylsulfonyl)-2,3-(S)-diaminopropionic acid], the half-inhibitory concentration (IC50) is below 10 µM.

Regarding `CCCCOC(=O)N[C@@H](CNC(=O)CSc1nnc(-c2ccc(C(=N)N)cc2)s1)C(=O)O` [Example 193, N^3-[2-{2-(4-Amidinophenyl)-1,3,4-thiadiazol-5-ylthio}acetyl]-N^2-(n-butoxycarbonyl)-2,3-(S)-diaminopropionic acid HCl salt], the IC50 was below 10 µM.
